What was measured:
HL-60 cells = assay: Differentiation inducing test: reactivity of HL-60 cells with monoclonal antibody FH-6 (sialyl Le^X); assay type: cell-based, human; details: 2 hours; for Positive rate (%), FH-6: control 95
Experimental: The monoclonal antibody FH-6 capable of recognizing sialyl Le^X was fluoresein (FITC)-labeled, and the reactivity between the active ingredient compound of the present invention and FH-6 was examined by flow cytometry as follows.
The test compound solutions prepared as described above under (3) were added to HL-60 cells prepared as described above under (1) to a final concentration of 1.0 μg/ml or 10 μg/ml. Cultivation was conducted in a 5% carbon dioxide gas incubator at 37° C. for 2 hours. Thereafter, the cell concentration was adjusted to 1 x 10^6 cells/ml and 100 μl of each aliquot was reacted with 10 μl of the fluorescein-labeled FH-6 solution, followed by flow cytometry.

Reverse transcriptase = assay: Antiretrovirus activity test: reverse transcriptase activity of virus from culture supernatant; assay type: cell-based, HIV; details: for Reverse transcriptase activity (cpm): control 1316
Experimental: Human transformed normal T cells (MT-4) [Nagumo, T. and Hoshino, H., Jpn. J. Cancer Res. 79, 9-11 (1988)] were used to prepare a suspension of 2×10^5 cells/ml in RPMI-1640 medium (Gibco) supplemented 10% FCS (Gibco).
Compound 1 was dissolved in hydrochloric acid, diluted in the same medium as above, neutralized with 2N NaOH and adjusted to concentrations of 1 μg/ml, 10 μg/ml, 30 μg/ml and 100 μg/ml.
The cells prepared in (a) above and the test compound (final concentration: 1 μg/ml, 10 μg/ml, 30 μg/ml or 100 μg/ml) prepared in (b) above were placed in the wells of a 12-well culture plate (Costar). Then, 50 μl/well of HIV suspension was added to infect the cells in each well, followed by 3-day incubation at 37° C. in a 5% carbon dioxide incubator. As a control, the medium without addition of the test compound was used. After completion of incubation, the cell suspension in each well was taken and viable cells were counted.
The cell suspension in each well was then centrifuged (1500 rpm×5 min) and 750 μl of culture supernatant was obtained.
The culture supernatant, 750 μ, obtained above was placed in an Eppendorf tube (1.8 ml) and 4 M NaCl and PEG-6000 (Sigma) were added. The mixture was allowed to react at 0° C. for 2 hours to precipitate the virus and the virus was harvested by centrifugation (15000 rpm×20 min). To this virus pellet were added solution 1 [50% glycerol (Wako Pure Chemical), 25 mM Tris-HCl (pH 7.5), 50 mM KCl 0.025% Triton X-100 (Sigma) and 5 mM DTT (Sigma)] and solution II [0.9% Triton X-100 (Sigma) and 1.5M KCl] for lysis at 0° C. for 30 min. To the resultant 10-μl virus solution were added 5 mg/ml bovine serum albumin (BSA, Sigma), 1 M Tris-HCl, 100 mM DTT (Sigma), 1M KCl, 10 mM Poly A (Sigma), 0.15 mM TTP (Sigma), 200 mM MgCl2, 0.15 mM Oligo(dT) (NEN) and [^3 H]-TTP (NEN) and the mixture was allowed to react at 37° C. for 1 hour. The reaction was then stopped by placing the mixture in ice and the whole amount was spotted on a membrane filter (DE-81 Filter, Whatman) and dried. After drying, the filter was washed three times with 0.5 M Na2 HPO4 and rinsed in ethanol and dried. The radioactivity of [^3 H]-TTP taken into DNA on the membrane was counted with a liquid scintillation counter to determine reverse transcriptase activity (unit, cpm).

[1] = system: CMK cells (platelet-associated antigen, glycoprotein IIb/IIIa); assay: Expression of platelet-associated antigen of CMK cells (Plt-1 antibody); assay type: cell-based, human; details: 30 μg/ml
Experimental: Compound 1 was dissolved in 1N hydrochloric acid and diluted with fetal calf serum (FCS, Gibco) to give a 1 mg/ml solution. This solution was added to RPMI-1640 medium (Flow Laboratories) supplemented 10% FCS and the mixture was neutralized with 1N NaOH and adjusted to a concentration of 30 μg/ml before use.
CMK cells were established by T. Sato et al. from patients with acute megakaryocytic leukemia. They are known to react with anti-platelet antibodies (anti-glycoprotein IIb/IIIa antibody, anti-glycoprotein Ib antibody and Plt-1 antibody). Moreover, it has mega-karyocyte-like properties, such as formation of α granules and a demarcation membrane in the cytoplasm. Therefore, these cells have been used for the analysis of the growth and differentiation of megakaryocytes [Sato, T., et al., Exp. Hematol., 15, 495 (1987); Sunami, S., et al., Blood, 70., 368 (1987); Komatsu, N., et al., Blood, 74(1), 42-48 (1989); Fuse, A., et al., British J. Haematology, 77, 32-36 (1991); Acta Haematologia Japonica 53(2), 294-295, 317-318 (1990)].
CMK cells were supplied by Dr. Takelruki Sato at the Department of Pediatrics, Chiba University School of Medicine. The cells, 5×10^4 cells/ml, were cultured in RPMI-1640 medium supplemented 10% FCS and subcultured every four days.
CMK cells, 1×10^5 cells/ml, were incubated in 10% FCS-added RPMI-1640 medium, containing 30 μg/ml of Compound 1, for 4 days and the expression of platelet-associated antigen on the cell surface was determined by flow cytometry (Coulter) using FITC-labeled Plt-1 antibody (Coulter). The medium containing no Compound 1 was used as a solvent control.
For the analysis of cell surface antigen, 1×10^6 cells/100 μl of CFIK cells were taken into a tube (Fischer) and reacted with 5 μl of FITC-labeled Plt-1 antibody at 4° C. for 30 minutes. The reaction mixture was washed three times with phosphate buffer containing 0.1% bovine serum albumin and determined for the percentage positive cells and fluorescence intensity.
The above-mentioned Plt-1 antibody (Coulter) is an antibody recognizing the platelet-associated antigen, glycoprotein IIb/IIIa and has been reported to increase with differentiation or maturation of CMK cells [Komatsu, N., et al., Blood, 74(1), 42-48 (1989)].

Structure (SMILES): COc1ccc(C(=O)N2CCN(c3ccc4c(c3)CCC(=O)N4)CC2)cc1OC [Compound 1, 6-[4-(3,4-Dimethoxybenzoyl)-1-piperazinyl]-3,4-dihydrocarbostyril]
- Sialic acid on HL-60 cell surface (HL-60 cells; 1.0 or 10 μg/ml): loss of sialic acid from the HL-60 cell surface
- Positive rate (%), FH-6 (HL-60 cells; 1.0 μg/ml): 82%
- Positive rate (%), FH-6 (HL-60 cells; 10 μg/ml): 76%
- Reverse transcriptase activity (cpm) (Reverse transcriptase; 1 μg/ml): 1423 cpm
- Reverse transcriptase activity (cpm) (Reverse transcriptase; 10 μg/ml): 1494 cpm
- Inhibition of reverse transcriptase activity (in words) (Reverse transcriptase; 30 μg/ml and 100 μg/ml): inhibits reverse transcriptase activity remarkably
- Reverse transcriptase activity (cpm) (Reverse transcriptase; 30 μg/ml): 372 cpm
- Reverse transcriptase activity (cpm) (Reverse transcriptase; 100 μg/ml): 898 cpm
- Change in percentage of Plt-1 positive cells (in words) [1]: no change in the percentage of positive cells
- Cell count ([1]; 4 days, solvent control 5.8): 3.2 10^5 /ml
- Plt-1 percentage positive cells (%) ([1]; 4 days, solvent control 96.1): 96.5%
- activity at 30 µg/mL ([1]; Homo sapiens, CMK, 96 h, 4 days, solvent control 100, read-out: Plt-1 mean fluorescence intensity (%)): 192%
- fold induction at 30 µg/mL ([1]; Homo sapiens, CMK, read-out: Increase in expression of platelet-associated antigen): 2

Reference: US5672603A, “Apoptosis regulating composition” (Otsuka Pharmaceutical Co., Ltd., priority 1991, dated 1997)
